For data set [1] the following is noted: same conditions; cited from earlier work.
In data set [2] the target is PSMA. More on the design: method as in PMID 22369515. The following applies: cited from earlier work.
The target of data set [3] is T1, PSMA (Homo sapiens, UniProt Q04609).
T1 construct: Detection of endogenous PSMA expression in LNCaP and PC3 cells relative to β-actin expression by Western; host or cells: LNCaP human prostate carcinoma cells (monolayer, spheroids or Potter-Elvehjem homogenates)
T1 sequence (Q04609 whole entry): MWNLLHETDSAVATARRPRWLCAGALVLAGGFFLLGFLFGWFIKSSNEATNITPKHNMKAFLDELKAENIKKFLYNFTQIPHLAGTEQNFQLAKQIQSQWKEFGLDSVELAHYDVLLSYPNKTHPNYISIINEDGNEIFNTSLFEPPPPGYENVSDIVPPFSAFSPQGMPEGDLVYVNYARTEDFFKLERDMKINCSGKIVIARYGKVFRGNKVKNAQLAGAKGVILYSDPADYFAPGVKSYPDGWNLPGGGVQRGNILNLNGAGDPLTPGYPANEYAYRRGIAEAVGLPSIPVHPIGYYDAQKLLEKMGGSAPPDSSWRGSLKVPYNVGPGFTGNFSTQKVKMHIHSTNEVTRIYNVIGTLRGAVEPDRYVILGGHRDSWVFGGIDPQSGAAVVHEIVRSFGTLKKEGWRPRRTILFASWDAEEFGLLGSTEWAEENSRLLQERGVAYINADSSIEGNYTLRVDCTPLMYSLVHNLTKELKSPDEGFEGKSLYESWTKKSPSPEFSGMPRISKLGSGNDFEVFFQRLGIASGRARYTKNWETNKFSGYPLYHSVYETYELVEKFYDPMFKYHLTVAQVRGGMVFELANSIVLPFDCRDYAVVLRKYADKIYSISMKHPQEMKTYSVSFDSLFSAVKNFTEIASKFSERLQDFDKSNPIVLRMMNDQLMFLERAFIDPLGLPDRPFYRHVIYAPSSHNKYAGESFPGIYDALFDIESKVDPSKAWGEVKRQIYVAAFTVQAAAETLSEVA
Put plainly: Saturation binding using LNCaP cell homogenates. The method, then: The binding affinity of the nonlabeled CHDT-PSMA-1/2/3, PSMA-1007, PSMA-617, and KuE was assessed in competition binding assays using LNCaP cell homogenates (∼1 × 10^6 cells/mL using Potter-Elvehjem) and the radioligand [^177Lu]Lu-PSMA-617 (n = 5 for CHDT-PSMA-1; n = 4 for CHDT-PSMA-2/3; n = 2 for PSMA-1007; n = 8 for PSMA-617; n = 6 for KuE). […] The assays were performed in a final volume of 200 μL. The incubation was stopped by washing the homogenate with cold PBS four times using a filter (Whatman GF/C, 90 min presoaked in 0.3% polyethylenimine) in a cell harvester (Brandel, USA). The radioactivity bound to the filter was measured in a gamma counter. Filter binding was determined for adjacent samples without cell homogenate. […] The Kd value of [^177Lu]Lu-PSMA-617 was determined in saturation binding assays using LNCaP cell homogenates to be 15.2 (±2.1) nM. […]
Dissociations constants (Kd and Kd,int), as well as maximal binding capacities (Bmax and Bmax,int), were derived from specific binding data by nonlinear regression according to the model of “One site-specific binding” as implemented in GraphPad Prism 10. Protein content was determined using the bicinchoninic acid protein assay kit (Pierce, Thermo Scientific) to calculate the binding capacities in pmol/mg and for the time-depending internalization the internalized percent of administrated dose per μg protein (% AD/μg protein).

For the compound `O=C(O)CN1CCN(CC(=O)O)CCN(CC(=O)O)CC1` [NOTA], in data set [1], the “64Cu-transchelation in human serum” value was “only minimal”. In general, Ki refers to a measure of affinity in units of concentration, obtained from inhibition or displacement. Take `O=C(O)CCc1ccc(O)c(CN(CCN(CC(=O)O)Cc2cc(CCC(=O)NCCCCCC(=O)NCCCC[C@H](NC(=O)N[C@@H](CCC(=O)O)C(=O)O)C(=O)O)ccc2O)CC(=O)O)c1` [PSMA-11]: the Ki at PSMA [2] is 12 nM. In general, Kd refers to a measure of binding affinity in units of concentration. Higher therefore signals lower affinity. [^177Lu]Lu-PSMA-617 gave a Kd at PSMA [3] of 15.2 nM.

Source of the values: PMC11417994, “Cyclohexanediamine Triazole (CHDT) Functionalization Enables Labeling of Target Molecules with Al^18F/^68Ga/^111In” (Bioconjugate Chemistry, 2024).
